Values of other authors, collected in patent publication US11058672B2, “Pharmaceutical compositions and methods for producing low impurity concentrations of the same” (Chiesi Farmaceutici S.p.A., priority 2008, dated 2021).

solubility in water: practically insoluble
SMILES: CCCC(=O)OCOC(=O)C1=C(C)NC(C)=C(C(=O)OC)C1c1cccc(Cl)c1Cl (stereo not shown) [Clevidipine, butyroxymethyl methyl 4-(2′,3′-dichlorophenyl)-1,4-dihydro-2,6-dimethyl-3,5-pyridinedicarboxylate]
